Reference: paper PMC8333425, “Discovery of a dual Ras and ARF6 inhibitor from a GPCR endocytosis screen” (Nature Communications, 2021)

How the values were obtained:
Experiment in all cases: KINOMEscan kinase binding assay
[1] = target: T1, 384 kinases from the human genome (Homo sapiens, UniProt O00750); conditions: kinase PIK3C2B (Entrez PIK3C2B)
T1 construct: purchased Eurofin/DiscoverX
How it was run: (§1)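 Competition binding (KINOMEscan) across 384 human kinases with compound at 10 µM. Ligand binding was expressed relative to DMSO (100%) as the average of duplicates from one experiment. S(10) selectivity score was derived.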

[2] = target: T2, 384 kinases from the human genome (Homo sapiens, UniProt O14976); conditions: kinase GAK (Entrez GAK)
T2 construct: purchased Eurofin/DiscoverX
How it was run: as §1

[3] = target: T3, 384 kinases from the human genome (Homo sapiens, UniProt O43293); conditions: kinase DAPK3 (Entrez DAPK3)
T3 construct: purchased Eurofin/DiscoverX
T3 sequence (O43293 whole entry): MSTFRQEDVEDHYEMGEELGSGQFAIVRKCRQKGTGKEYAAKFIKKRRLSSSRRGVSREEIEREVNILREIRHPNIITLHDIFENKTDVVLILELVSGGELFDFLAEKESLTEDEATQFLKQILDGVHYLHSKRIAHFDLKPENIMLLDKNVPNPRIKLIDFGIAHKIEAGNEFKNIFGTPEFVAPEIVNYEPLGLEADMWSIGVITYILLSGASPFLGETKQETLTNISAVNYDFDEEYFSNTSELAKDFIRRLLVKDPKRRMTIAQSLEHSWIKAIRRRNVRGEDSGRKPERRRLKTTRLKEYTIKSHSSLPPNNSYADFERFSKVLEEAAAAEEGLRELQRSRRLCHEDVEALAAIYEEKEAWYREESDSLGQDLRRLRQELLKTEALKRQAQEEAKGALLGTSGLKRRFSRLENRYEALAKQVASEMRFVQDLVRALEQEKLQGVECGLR
How it was run: as §1

[4] = target: T4, 384 kinases from the human genome (Homo sapiens, UniProt O75914); conditions: kinase PAK3 (Entrez PAK3)
T4 construct: purchased Eurofin/DiscoverX
How it was run: as §1

[5] = target: T5, 384 kinases from the human genome (Homo sapiens, UniProt P06241); conditions: kinase FYN (Entrez FYN)
T5 construct: purchased Eurofin/DiscoverX
T5 sequence (P06241 whole entry): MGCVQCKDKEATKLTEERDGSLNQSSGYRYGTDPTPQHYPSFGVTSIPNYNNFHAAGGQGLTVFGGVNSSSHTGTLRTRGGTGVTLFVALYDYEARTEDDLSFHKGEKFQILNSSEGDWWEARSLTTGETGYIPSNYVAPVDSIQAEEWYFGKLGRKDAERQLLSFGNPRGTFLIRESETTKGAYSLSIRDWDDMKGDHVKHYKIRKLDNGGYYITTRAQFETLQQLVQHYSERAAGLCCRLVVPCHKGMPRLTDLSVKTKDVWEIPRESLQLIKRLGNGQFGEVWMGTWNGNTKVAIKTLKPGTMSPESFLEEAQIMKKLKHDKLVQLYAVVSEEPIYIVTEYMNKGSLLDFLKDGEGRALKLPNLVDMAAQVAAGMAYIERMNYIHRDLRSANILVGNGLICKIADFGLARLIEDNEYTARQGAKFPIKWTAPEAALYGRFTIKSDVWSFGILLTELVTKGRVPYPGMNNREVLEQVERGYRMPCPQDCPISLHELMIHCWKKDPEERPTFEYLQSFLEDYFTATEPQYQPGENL
How it was run: as §1

[6] = target: T6, 384 kinases from the human genome (Homo sapiens, UniProt P12931)
T6 construct: purchased Eurofin/DiscoverX
T6 sequence (P12931 whole entry): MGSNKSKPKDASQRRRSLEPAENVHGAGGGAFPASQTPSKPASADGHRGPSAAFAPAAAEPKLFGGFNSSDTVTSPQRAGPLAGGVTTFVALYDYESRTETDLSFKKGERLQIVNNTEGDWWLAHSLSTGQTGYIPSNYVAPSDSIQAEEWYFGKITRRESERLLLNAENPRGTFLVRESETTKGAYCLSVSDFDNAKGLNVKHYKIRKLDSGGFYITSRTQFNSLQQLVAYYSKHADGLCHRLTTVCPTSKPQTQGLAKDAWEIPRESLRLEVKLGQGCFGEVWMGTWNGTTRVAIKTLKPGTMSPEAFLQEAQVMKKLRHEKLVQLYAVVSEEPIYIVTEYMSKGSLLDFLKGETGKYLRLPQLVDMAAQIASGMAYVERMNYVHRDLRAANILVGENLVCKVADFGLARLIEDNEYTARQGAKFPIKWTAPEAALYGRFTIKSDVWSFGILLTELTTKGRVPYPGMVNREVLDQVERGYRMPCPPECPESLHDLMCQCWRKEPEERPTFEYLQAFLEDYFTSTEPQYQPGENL
How it was run: as §1

[7] = target: T7, 384 kinases from the human genome (Homo sapiens, UniProt P25098); conditions: kinase GRK2 (Entrez ADRBK1)
T7 construct: purchased Eurofin/DiscoverX
How it was run: as §1

[8] = target: T8, 384 kinases from the human genome (Homo sapiens, UniProt P42679); conditions: kinase CTK (Entrez MATK)
T8 construct: purchased Eurofin/DiscoverX
How it was run: as §1

[9] = target: T9, 384 kinases from the human genome (Homo sapiens, UniProt P42684); conditions: kinase ABL2 (Entrez ABL2)
T9 construct: purchased Eurofin/DiscoverX
How it was run: as §1

[10] = target: T10, 384 kinases from the human genome (Homo sapiens, UniProt P45984); conditions: kinase JNK2 (Entrez MAPK9)
T10 construct: purchased Eurofin/DiscoverX
How it was run: as §1

[11] = target: T11, 384 kinases from the human genome (Homo sapiens, UniProt P46734); conditions: kinase MEK3 (Entrez MAP2K3)
T11 construct: purchased Eurofin/DiscoverX
T11 sequence (P46734 whole entry): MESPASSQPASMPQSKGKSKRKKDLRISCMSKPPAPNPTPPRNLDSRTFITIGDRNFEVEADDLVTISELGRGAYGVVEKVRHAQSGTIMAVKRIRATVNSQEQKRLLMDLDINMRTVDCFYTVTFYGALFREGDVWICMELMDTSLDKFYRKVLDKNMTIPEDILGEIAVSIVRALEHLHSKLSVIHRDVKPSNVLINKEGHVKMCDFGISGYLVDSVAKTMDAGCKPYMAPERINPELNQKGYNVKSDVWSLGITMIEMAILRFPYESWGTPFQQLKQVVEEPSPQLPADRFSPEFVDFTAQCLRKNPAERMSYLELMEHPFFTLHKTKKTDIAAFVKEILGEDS
How it was run: as §1

[12] = target: T12, 384 kinases from the human genome (Homo sapiens, UniProt P49137); conditions: kinase MAPKAPK2 (Entrez MAPKAPK2)
T12 construct: purchased Eurofin/DiscoverX
How it was run: as §1

[13] = target: T13, 384 kinases from the human genome (Homo sapiens, UniProt P51617); conditions: kinase IRAK1 (Entrez IRAK1)
T13 construct: purchased Eurofin/DiscoverX
How it was run: as §1

[14] = target: T14, 384 kinases from the human genome (Homo sapiens, UniProt P53667); conditions: kinase LIMK1 (Entrez LIMK1)
T14 construct: purchased Eurofin/DiscoverX
T14 sequence (P53667 whole entry): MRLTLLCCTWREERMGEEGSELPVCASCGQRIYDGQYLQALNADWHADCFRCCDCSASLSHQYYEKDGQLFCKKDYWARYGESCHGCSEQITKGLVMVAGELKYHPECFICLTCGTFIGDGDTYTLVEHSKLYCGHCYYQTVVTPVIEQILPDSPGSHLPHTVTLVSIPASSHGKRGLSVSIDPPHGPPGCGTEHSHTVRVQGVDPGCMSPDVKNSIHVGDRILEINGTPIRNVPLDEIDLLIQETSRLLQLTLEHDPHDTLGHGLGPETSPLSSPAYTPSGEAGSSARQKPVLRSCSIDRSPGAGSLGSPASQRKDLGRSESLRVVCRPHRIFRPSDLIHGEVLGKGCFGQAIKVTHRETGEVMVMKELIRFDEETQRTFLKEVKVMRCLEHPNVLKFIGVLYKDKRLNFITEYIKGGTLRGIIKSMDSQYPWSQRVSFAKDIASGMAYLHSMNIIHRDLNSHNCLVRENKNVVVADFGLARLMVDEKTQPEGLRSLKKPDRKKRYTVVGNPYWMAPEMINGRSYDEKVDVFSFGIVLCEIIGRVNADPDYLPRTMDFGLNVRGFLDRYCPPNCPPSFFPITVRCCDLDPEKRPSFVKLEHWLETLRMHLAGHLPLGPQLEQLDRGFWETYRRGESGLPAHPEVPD
How it was run: as §1

[15] = target: T15, 384 kinases from the human genome (Homo sapiens, UniProt P68400); conditions: kinase CSNK2A1 (Entrez CSNK2A1)
T15 construct: purchased Eurofin/DiscoverX
How it was run: as §1

[16] = target: T16, 384 kinases from the human genome (Homo sapiens, UniProt Q04759); conditions: kinase PRKCQ (Entrez PRKCQ)
T16 construct: purchased Eurofin/DiscoverX
How it was run: as §1

[17] = target: T17, 384 kinases from the human genome (Homo sapiens, UniProt Q13470); conditions: kinase TNK1 (Entrez TNK1)
T17 construct: purchased Eurofin/DiscoverX
How it was run: as §1

[18] = target: T18, 384 kinases from the human genome (Homo sapiens, UniProt Q15569); conditions: kinase TESK1 (Entrez TESK1)
T18 construct: purchased Eurofin/DiscoverX
How it was run: as §1

[19] = target: T19, 384 kinases from the human genome (Homo sapiens, UniProt Q52WX2); conditions: kinase SBK1 (Entrez SBK1)
T19 construct: purchased Eurofin/DiscoverX
How it was run: as §1

[20] = target: T20, 384 kinases from the human genome (Homo sapiens, UniProt Q6ZN16); conditions: kinase MAP3K15 (Entrez MAP3K15)
T20 construct: purchased Eurofin/DiscoverX
How it was run: as §1

[21] = target: T21, 384 kinases from the human genome (Homo sapiens, UniProt Q8NEB9); conditions: kinase VPS34 (Entrez PIK3C3)
T21 construct: purchased Eurofin/DiscoverX
T21 sequence (Q8NEB9 whole entry): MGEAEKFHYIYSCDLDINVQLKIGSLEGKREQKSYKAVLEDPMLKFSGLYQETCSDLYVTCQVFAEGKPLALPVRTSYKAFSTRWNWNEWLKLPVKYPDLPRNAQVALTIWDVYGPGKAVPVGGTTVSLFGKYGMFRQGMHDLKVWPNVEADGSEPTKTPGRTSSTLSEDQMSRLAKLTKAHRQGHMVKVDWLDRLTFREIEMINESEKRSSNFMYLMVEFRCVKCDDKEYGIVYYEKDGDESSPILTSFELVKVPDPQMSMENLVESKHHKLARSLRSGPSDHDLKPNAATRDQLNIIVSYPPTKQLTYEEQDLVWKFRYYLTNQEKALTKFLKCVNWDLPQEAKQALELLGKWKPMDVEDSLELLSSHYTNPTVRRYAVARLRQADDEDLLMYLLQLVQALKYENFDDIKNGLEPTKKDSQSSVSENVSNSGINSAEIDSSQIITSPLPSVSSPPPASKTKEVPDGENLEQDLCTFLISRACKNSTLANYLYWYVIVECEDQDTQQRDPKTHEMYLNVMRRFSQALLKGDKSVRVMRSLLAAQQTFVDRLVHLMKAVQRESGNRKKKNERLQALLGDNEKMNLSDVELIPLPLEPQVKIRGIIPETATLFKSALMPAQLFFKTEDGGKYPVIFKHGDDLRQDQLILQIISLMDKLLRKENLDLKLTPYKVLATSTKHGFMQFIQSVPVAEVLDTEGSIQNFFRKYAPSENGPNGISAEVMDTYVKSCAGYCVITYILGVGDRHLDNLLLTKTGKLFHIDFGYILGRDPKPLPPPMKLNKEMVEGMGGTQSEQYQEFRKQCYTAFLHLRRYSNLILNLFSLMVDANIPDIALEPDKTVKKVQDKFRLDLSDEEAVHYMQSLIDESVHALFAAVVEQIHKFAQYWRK
How it was run: as §1

[22] = target: T22, 384 kinases from the human genome (Homo sapiens, UniProt Q8NFD2); conditions: kinase ANKK1 (Entrez ANKK1)
T22 construct: purchased Eurofin/DiscoverX
T22 sequence (Q8NFD2 whole entry): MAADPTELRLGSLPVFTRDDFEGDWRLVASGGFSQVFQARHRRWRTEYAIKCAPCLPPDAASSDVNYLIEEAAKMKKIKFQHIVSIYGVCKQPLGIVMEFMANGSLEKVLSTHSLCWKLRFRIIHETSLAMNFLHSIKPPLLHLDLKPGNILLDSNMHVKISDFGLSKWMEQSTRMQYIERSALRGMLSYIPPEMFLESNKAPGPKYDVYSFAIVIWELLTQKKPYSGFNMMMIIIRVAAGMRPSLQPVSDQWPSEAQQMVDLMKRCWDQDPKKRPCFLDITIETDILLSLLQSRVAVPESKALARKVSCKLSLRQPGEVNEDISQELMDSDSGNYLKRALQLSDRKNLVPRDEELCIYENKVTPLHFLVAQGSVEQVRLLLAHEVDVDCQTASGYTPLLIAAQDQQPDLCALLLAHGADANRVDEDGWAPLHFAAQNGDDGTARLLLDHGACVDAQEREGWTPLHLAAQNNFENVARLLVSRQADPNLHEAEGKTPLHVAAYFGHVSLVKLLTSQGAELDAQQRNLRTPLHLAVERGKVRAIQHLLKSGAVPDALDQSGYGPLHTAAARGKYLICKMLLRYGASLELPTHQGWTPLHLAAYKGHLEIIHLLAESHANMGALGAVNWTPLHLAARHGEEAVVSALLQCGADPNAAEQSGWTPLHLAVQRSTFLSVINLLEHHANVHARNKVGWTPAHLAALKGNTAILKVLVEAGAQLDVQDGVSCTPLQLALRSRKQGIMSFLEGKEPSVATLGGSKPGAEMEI
How it was run: as §1

[23] = target: T23, 384 kinases from the human genome (Homo sapiens, UniProt Q8NG66); conditions: kinase NEK11 (Entrez NEK11)
T23 construct: purchased Eurofin/DiscoverX
How it was run: as §1

[24] = target: T24, 384 kinases from the human genome (Homo sapiens, UniProt Q9H1R3); conditions: kinase MYLK2 (Entrez MYLK2)
T24 construct: purchased Eurofin/DiscoverX
How it was run: as §1

[25] = target: T25, 384 kinases from the human genome (Homo sapiens, UniProt Q9UKE5); conditions: kinase TNIK (Entrez TNIK)
T25 construct: purchased Eurofin/DiscoverX
How it was run: as §1

[26] = target: T26, 384 kinases from the human genome (Homo sapiens, UniProt Q9UQ88); conditions: kinase CDC2L2 (Entrez CDC2L2)
T26 construct: purchased Eurofin/DiscoverX
T26 sequence (Q9UQ88 whole entry): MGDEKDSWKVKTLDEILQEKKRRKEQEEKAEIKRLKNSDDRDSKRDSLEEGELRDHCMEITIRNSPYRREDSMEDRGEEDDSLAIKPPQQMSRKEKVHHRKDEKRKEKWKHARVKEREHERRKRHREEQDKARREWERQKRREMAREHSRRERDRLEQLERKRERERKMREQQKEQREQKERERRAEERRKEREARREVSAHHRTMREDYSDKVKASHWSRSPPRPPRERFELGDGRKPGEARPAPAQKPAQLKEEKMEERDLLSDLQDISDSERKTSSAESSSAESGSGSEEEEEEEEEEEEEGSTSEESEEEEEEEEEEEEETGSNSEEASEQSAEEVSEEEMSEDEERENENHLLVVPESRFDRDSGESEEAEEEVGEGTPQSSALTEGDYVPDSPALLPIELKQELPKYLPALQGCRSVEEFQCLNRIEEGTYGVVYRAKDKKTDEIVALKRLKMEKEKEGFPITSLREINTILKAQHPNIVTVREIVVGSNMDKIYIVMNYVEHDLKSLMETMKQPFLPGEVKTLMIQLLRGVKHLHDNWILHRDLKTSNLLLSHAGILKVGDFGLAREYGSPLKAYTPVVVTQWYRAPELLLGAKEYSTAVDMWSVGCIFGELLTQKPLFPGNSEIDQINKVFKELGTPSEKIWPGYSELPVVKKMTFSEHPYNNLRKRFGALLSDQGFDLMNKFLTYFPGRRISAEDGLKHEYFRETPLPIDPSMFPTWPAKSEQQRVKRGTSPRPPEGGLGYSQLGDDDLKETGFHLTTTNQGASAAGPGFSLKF
How it was run: as §1

SMILES: CC(C)C(=O)N1CCN(c2ccc(NC(=O)c3cc4ccccc4o3)cc2Cl)CC1 [Compound 21]
- Percent Control [1]: 98%
- Percent Control [2]: 96%
- Percent Control [3]: 100%
- Percent Control [4]: 92%
- Percent Control [5]: 67%
- binding to Src ([6]; 10 µM of 21): failed to bind
- Percent Control ([6]; kinase SRC (Entrez SRC)): 100%
- Percent Control [7]: 99%
- Percent Control [8]: 95%
- Percent Control [9]: 91%
- Percent Control [10]: 70%
- Percent Control [11]: 76%
- Percent Control [12]: 100%
- Percent Control [13]: 99%
- Percent Control [14]: 79%
- Percent Control [15]: 100%
- Percent Control [16]: 93%
- Percent Control [17]: 75%
- Percent Control [18]: 82%
- Percent Control [19]: 100%
- Percent Control [20]: 100%
- Percent Control [21]: 100%
- Percent Control [22]: 100%
- Percent Control [23]: 97%
- Percent Control [24]: 80%
- Percent Control [25]: 57%
- Percent Control [26]: 95%
